# Like-named read-outs stand apart in the source and are kept apart here.
# Tests used:
# [1] = tested on: PTSD caused by abuse in early childhood; conditions: for Total score (PCL-5): 7% hydrogen gas inhaled, before inhalation score 66
# Experimental: Adult women who had lived for 10 years or longer after the onset of PTSD caused by abuse in early childhood were subjected to inhalation of hydrogen gas with a concentration of 7% by using a hydrogen generator (MHG-2000α, produced by MiZ Company Limited) for at least 1 hour (up to 4 hours) per day over 7 weeks. Each of the subjects had been regularly using an analgesic prescribed by a physician to treat pain, and continued the regular use also during the period of inhalation.
# Symptoms of PTSD were quantified through interviews by a physician with the PTSD Checklist for DSM-5 (PCL-5; published by the National Center for PTSD).
# [2] = at clinical concentrations, previous studies; cited from earlier work
# [3] = tested on: ROS formation in the brains; conditions: 6 days after blast exposure; 4% hydrogen gas 6 hours per day
# Experimental: (§1) All animal experiments relating to the present invention were conducted according to the institutional ethical guidelines for animal experiments of the National Defense Medical College and these animal experiments were approved by the Committee for Animal Research at the National Defense Medical College. Inbred C57BL/6 mice were used in this experiment. Age-matched male littermate mice were used in all experiments. The mice were housed in a breeding room with a 12-h light/dark cycle and a room temperature maintained at 24±1° C. The mice had ad libitum access to water and food.
# (§2) The mice at 10 weeks of age were anesthetized by intraperitoneal administration of mixed anesthetic agents containing medetomidine hydrochloride (0.3 mg/kg, Domitol, Meiji Seika Pharma Co., Ltd.), midazolam (4.0 mg/kg, Dormice, Astellas Pharma Inc.), and butorphanol (5.0 mg/kg, Vetorphale, Meiji Seika Pharma Co., Ltd.). […] Following blast exposure, mice were allowed to recover from anesthesia and were subsequently returned to their home cage.
# (§3) Mice were placed in a humid chamber for hydrogen gas inhalation for 6 hours per day. Hydrogen gas diluted by air (4%) was supplied to the chamber from a hydrogen gas supply apparatus (MiZ Company Limited) at a feeding rate of 2 L/min. The mice had ad libitum access to water and food in the chamber.
# [4] = tested on: mice exposed to blast (bmTBI)
# Experimental: as §1, with “food. […]” for “food.”
# Behavioral analysis was performed 7 days after the blast exposure. […] The behavior of each mouse was monitored and analyzed using a computer-operated video tracking system (SMART, Panlab, Barcelona, Spain), unless otherwise stated. In tests using an apparatus with arms, arm entry was counted when all four legs of a mouse entered each arm. […]
# A sociability test was performed by using a conventional method. Interaction time with another living mouse versus a stuffed mouse was measured in an open field using two cylinder cages allowing olfactory and minimal tactile feelings. […]
# [5] = tested on: mice exposed to blast (bmTBI); remark: listed apart in the source
# Experimental: as §1, §2, §3
# Behavioral analysis was performed 7 days after the blast exposure. All mice used in the behavioral analysis were age-matched male littermates. The behavior of each mouse was monitored and analyzed using a computer-operated video tracking system (SMART, Panlab, Barcelona, Spain), unless otherwise stated. In tests using an apparatus with arms, arm entry was counted when all four legs of a mouse entered each arm. The apparatus was washed after each test. Behavioral studies were performed for mice at 11 to 12 weeks of age.
# [6] = tested on: PTSD due to physical abuse in early childhood and later stages; conditions: 7% hydrogen gas inhaled, before inhalation score 61
# Experimental: (§4) Adult women who had experienced the onset of PTSD due to an intense psychological shock received through physical abuse in early childhood and later stages were subjected to inhalation of hydrogen gas with a concentration of 7% by using a hydrogen generator (MHG-2000α, produced by MiZ Company Limited) for 1 to 3 hours per day over 3 weeks. Each of the subjects had been regularly using an analgesic prescribed by a physician to treat pain, and continued the regular use also during the period of inhalation.
# (§5) Symptoms of PTSD were quantified through interviews by a physician.
# [7] = tested on: PTSD due to an intense psychological shock received in military operations; conditions: for Total score: 7% hydrogen gas inhaled, before inhalation score 49
# Experimental: as §4, with “received” for “received through physical abuse”, “military operations” for “early childhood and later stages”, “at least 2 hours (up” for “1”, “4 hours)” for “3 hours”
# as §5
# [8] = 7 days after blast, 4% hydrogen gas 6 hours per day for 7 days, one-way ANOVA p>0.05
smiles,measurement,setting,value
[HH] [hydrogen gas],Symptoms of PTSD after the initiation of inhalation,"[1]; 7% hydrogen gas, 1 to 4 hours per day over 7 weeks",tended to ameliorate
same,Total score (PCL-5),"[1]; Week 1, average 2.2 H/day",55
same,Total score (PCL-5),"[1]; Week 2, average 3.8 H/day",41
same,Total score (PCL-5),"[1]; Week 4, average 2.8 H/day",41
same,Total score (PCL-5),"[1]; Week 7, average 1.1 H/day",27
same,Side effects of hydrogen,[2],no serious side effect
same,ROS in the brains (ethidium fluorescence) versus blast exposure alone,[3],significantly reduced
same,Abnormal social behaviors induced by blast,"[4]; conclusion from sociability, olfactory and novelty tests",suppressed the abnormal social behaviors induced by blast
same,Difference between interaction time with living mouse and with stuffed mouse,"[4]; within bmTBI+H2 group, t-test p>0.05",no significant difference
same,"Activity, total distance traveled in 10 minutes, versus sham",[5]; [8],did not show abnormal activity
same,"Percentage of time spent in the open arms, comparison of Sham, bmTBI, bmTBI+H2",[5]; [8],did not differ significantly
same,"Gross motor function, latency on accelerating rotarod","[5]; 7 days after blast, 4% hydrogen gas 6 hours per day for 7 days, two-way ANOVA p>0.05",gross motor function was intact
same,Total immobility time during the 6-minute trial,"[5]; bmTBI+H2 group versus control, bmTBI increased, one-way ANOVA F=6.94, p=0.0036",comparable immobility time to control mice (Sham)
same,Latency to the first bout of immobility,"[5]; bmTBI+H2 group versus control, one-way ANOVA F=6.42, p=0.0051",latencies comparable to the control (Sham) group
same,Correct choices (spatial working memory),"[5]; bmTBI+H2 group, Sham 62.6±1.8%, bmTBI 62.3±3.4%, mean±standard error, p>0.05",60.4±3.4%
same,Depression-like behaviors induced by blast exposure,[5]; conclusion from tail suspension and forced swim tests,suppresses depression-like behaviors induced by blast exposure
same,"Duration of interaction with an inanimate novel object, difference between groups",[5]; one-way ANOVA p>0.05,no difference
same,"Time required to find the buried food, difference between groups",[5]; one-way ANOVA p>0.05,no difference was found in the olfactory test
same,Total score,"[6]; Week 1, average 3 H/day",62
same,Total score,"[6]; Week 2, average 2 H/day",60
same,Total score,"[6]; Week 4, average 1 H/day",49
same,Total score,"[6]; Week 7, average 2 H/day",53
same,Total score,"[6]; Week 10, average 2.15 H/day",50
same,Symptoms of PTSD after the initiation of inhalation,"[7]; 7% hydrogen gas, 2 to 4 hours per day over 3 weeks",tended to ameliorate
same,Total score,"[7]; Week 2, average 4 H/day",16
same,Total score,"[7]; Week 3, average 2 H/day",12

# Reference: patent US20230111180A1, “HYDROGEN CONTAINING COMPOSITION AND METHODS OF USING THE SAME” (MiZ Company Limited, priority 2017, published 2023)
